Consider 4 compounds from BindingDB's records for doi:10.1016/0014-5793(95)01389-x (Max-Planck-Institut, 1995).

For the experiment, the target named is 5-hydroxytryptamine receptor 5A (Mus musculus, UniProt P30966).
Sequence of 5-hydroxytryptamine receptor 5A (P30966 whole entry): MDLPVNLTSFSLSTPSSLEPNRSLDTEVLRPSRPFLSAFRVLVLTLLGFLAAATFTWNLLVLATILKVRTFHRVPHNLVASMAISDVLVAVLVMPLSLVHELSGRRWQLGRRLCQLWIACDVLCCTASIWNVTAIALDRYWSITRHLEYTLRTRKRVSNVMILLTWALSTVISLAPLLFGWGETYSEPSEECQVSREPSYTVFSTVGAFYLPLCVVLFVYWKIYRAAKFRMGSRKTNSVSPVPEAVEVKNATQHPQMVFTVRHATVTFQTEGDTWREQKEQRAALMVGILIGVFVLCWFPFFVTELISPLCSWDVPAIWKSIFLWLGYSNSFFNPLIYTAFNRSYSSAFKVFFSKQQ

The Ki is the equilibrium dissociation constant of an inhibitor or competing ligand from its target. Low values mean tighter binding, high ones weaker binding. In the case of `CC[C@@H](CO)NC(=O)[C@@H]1C=C2c3cccc4c3c(cn4C)C[C@H]2N(C)C1`, the Ki worked out at 500 nM.

For `CN(C)CCc1c[nH]c2ccc(O)cc12` [3-[2-(dimethylamino)ethyl]indol-5-ol], affinity was put at a Ki of 2900 nM.

`CN1C[C@H](C(=O)N[C@]2(C)O[C@@]3(O)[C@@H]4CCCN4C(=O)[C@H](Cc4ccccc4)N3C2=O)C=C2c3cccc4[nH]cc(c34)C[C@H]21` [12'-hydroxy-2'-methyl-5'alpha-(phenylmethyl)ergotaman-3',6',18-trione] gave an inhibition constant (Ki) of 38 nM.

`CN1CC(C(=O)O)C=C2c3cccc4[nH]cc(c34)CC21` (centres undefined) [NSC_622688]: the Ki came to 2000 nM.
